Results published in BigSolDB 2.1.

c1ccc2c(c1)ccc1ccccc12
solubility (mole fraction)
Settings | 293 K | 303 K | 313 K | 323 K
in 2,2,4-trimethylpentane | 0.019 | 0.036 | 0.0874 | 0.138
in n-heptane | 0.0154 | 0.0247 | 0.036 | 0.0519
in toluene | 0.461 | 0.499 | 0.577 | 0.604
